Assay results published in ChEMBL document CHEMBL1150311, “4-Methyl-5-phenyl triazoles as selective inhibitors of 11beta-hydroxysteroid dehydrogenase type I” (Bioorg Med Chem Lett, 2008).

Tests used:
[1] = molecular target: 11-beta-hydroxysteroid dehydrogenase 1 (Homo sapiens, UniProt P28845); assay: Inhibition of human 11beta HSD1 by SPA assay
[2] = molecular target: 11-beta-hydroxysteroid dehydrogenase 1 (Mus musculus, UniProt P50172); assay: Inhibition of mouse 11beta HSD1 by SPA assay
[3] = molecular target: T1, 11-beta-hydroxysteroid dehydrogenase type 2 (Homo sapiens, UniProt P80365); assay: Inhibition of human 11beta HSD2
T1 sequence (P80365 whole entry): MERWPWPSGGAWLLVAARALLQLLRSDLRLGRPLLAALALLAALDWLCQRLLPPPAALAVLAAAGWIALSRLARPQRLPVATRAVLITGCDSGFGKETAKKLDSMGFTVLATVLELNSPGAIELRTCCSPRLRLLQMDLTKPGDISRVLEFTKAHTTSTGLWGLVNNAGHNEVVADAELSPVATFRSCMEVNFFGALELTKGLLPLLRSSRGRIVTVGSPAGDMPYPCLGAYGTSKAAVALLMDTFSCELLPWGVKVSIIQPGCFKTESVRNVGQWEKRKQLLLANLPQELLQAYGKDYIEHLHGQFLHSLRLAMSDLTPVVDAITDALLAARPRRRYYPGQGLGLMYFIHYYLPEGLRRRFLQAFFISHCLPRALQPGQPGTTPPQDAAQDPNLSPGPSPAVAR

[4] = molecular target: T2, Nuclear receptor subfamily 1 group I member 2 (Homo sapiens, UniProt O75469); assay: Agonist activity at human PXR at 10 uM; type: functional
T2 sequence (O75469 whole entry): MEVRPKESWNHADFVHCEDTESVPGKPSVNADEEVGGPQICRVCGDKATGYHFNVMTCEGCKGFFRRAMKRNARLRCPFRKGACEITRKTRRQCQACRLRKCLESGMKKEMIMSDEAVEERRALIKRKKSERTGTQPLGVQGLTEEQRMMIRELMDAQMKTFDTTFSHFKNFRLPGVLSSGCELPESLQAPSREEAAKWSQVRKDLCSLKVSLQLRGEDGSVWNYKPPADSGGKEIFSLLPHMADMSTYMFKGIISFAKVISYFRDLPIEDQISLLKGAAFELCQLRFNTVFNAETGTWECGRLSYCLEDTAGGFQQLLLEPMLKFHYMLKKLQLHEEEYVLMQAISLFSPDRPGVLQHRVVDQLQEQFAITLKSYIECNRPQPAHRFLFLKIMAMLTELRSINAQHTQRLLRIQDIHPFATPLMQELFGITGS

[5] = molecular target: T2, Nuclear receptor subfamily 1 group I member 2; assay: Agonist activity at human PXR; type: functional
Mus musculus [6] = assay: Inhibition of [3H]cortisone to [3H]cortisol conversion in mouse at 10 mg/kg, po administered as single dose after 4 hrs; type: functional
Mus musculus [7] = assay: Inhibition of [3H]cortisone to [3H]cortisol conversion in mouse at 10 mg/kg, po administered as single dose after 16 hrs; type: functional
[8] = molecular target: T3, 11-beta-hydroxysteroid dehydrogenase type 2 (Mus musculus, UniProt P51661); assay: Inhibition of mouse 11beta HSD2
T3 sequence (P51661 whole entry): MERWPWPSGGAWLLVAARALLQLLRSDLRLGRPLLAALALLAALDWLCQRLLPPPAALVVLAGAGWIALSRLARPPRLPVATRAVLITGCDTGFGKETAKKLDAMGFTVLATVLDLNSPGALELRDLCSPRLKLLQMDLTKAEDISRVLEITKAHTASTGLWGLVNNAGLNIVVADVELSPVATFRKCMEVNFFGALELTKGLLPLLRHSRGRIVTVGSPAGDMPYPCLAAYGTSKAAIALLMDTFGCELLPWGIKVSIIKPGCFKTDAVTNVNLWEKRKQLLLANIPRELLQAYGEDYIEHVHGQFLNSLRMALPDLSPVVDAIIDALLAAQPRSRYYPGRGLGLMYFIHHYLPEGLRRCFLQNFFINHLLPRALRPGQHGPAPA

[9] = molecular target: T4, 11-beta-hydroxysteroid dehydrogenase type 2 (Homo sapiens) (UniProt P80365); settings: at 4 µM
T4 sequence (whole entry): T1 sequence (P80365 whole entry)
Description: Inhibition of human 11beta HSD2 at 4 uM

Mus musculus [10] = assay: Inhibition of [3H]cortisone to [3H]cortisol conversion in mouse at 10 mg/kg, po administered as single dose after 1 hr; type: functional

Chain of 11-beta-hydroxysteroid dehydrogenase 1 (Mus musculus, UniProt P50172) (P50172 whole entry): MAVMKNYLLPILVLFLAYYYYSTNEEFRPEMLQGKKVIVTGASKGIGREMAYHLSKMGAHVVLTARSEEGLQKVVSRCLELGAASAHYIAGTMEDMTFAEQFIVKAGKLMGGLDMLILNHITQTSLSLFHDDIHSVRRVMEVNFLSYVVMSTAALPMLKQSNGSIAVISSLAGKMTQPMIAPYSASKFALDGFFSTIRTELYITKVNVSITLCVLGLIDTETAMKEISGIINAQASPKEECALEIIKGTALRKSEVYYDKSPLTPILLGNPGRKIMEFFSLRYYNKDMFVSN
Chain of 11-beta-hydroxysteroid dehydrogenase 1 (Homo sapiens, UniProt P28845) (P28845 whole entry): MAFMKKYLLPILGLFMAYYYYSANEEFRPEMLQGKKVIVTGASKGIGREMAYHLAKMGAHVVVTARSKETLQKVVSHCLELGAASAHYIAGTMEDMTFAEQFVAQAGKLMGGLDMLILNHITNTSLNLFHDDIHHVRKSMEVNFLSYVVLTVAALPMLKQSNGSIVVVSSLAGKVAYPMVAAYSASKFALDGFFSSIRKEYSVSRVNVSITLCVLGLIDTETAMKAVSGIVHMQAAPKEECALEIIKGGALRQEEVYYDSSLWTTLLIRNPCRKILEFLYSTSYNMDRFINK

Row | Compound | IC50 [1] [nM] | IC50 [2] [nM] | IC50 [3] [nM] | Activity [4] [%] | EC50 [5] [nM] | inhibition in vivo at 10 mg/kg (Mus musculus [6]) [%] | inhibition in vivo at 10 mg/kg (Mus musculus [7]) [%] | IC50 [8] [nM] | inhibition [9] [%] | inhibition in vivo at 10 mg/kg (Mus musculus [10]) [%]
1 | Cn1c(-c2ccc(-c3cccc(S(C)(=O)=O)c3)cc2Cl)nnc1C1(c2ccc(Cl)cc2)CCC1 | 0.98 | 0.98 | > 4000 | -5 | > 25000 | 96 | 36 | > 4000 |  | 
2 | CCS(=O)(=O)c1ccc(-c2ccc(-c3nnc(C4(c5ccc(Cl)cc5)CCC4)n3C)c(Cl)c2)cc1 | 2.1 | 0.98 |  | -8 | > 25000 | 71 | 16 | > 4000 | 75 | 
3 | Cn1c(-c2ccc(-n3ccnc3S(C)(=O)=O)cc2Cl)nnc1C1(c2ccc(Cl)cc2)CCC1 | 14 | 9.4 |  | 23 | 7900 |  |  | > 4000 |  | 
4 | Cn1c(-c2ccc(-c3ccc(S(C)(=O)=O)cc3)cc2Cl)nnc1C1(c2ccc(Cl)cc2)CCC1 | 1.7 | 1.2 | > 4000 | 2 | > 25000 | 20 | -5 | > 4000 |  | 
5 | Cn1c(-c2ccc(-c3ccncc3)cc2Cl)nnc1C1(c2ccc(Cl)cc2)CCC1 | 1 | 2 |  | 42 | 7700 | 39 | 8 | > 4000 |  | 
6 | CCS(=O)(=O)c1ccccc1-c1ccc(-c2nnc(C3(c4ccc(Cl)cc4)CCC3)n2C)c(Cl)c1 | 0.98 | 1.2 | > 4000 | 74 | 700 | 56 | 6 | > 4000 |  | 
7 | Cn1c(-c2ccc(-n3ccnc3C(F)(F)F)cc2Cl)nnc1C1(c2ccc(Cl)cc2)CCC1 | 0.98 | 0.96 |  | 24 | 3200 | 58 | 20 | > 4000 |  | 
8 | Cn1c(-c2ccc(-c3cccnc3)cc2Cl)nnc1C1(c2ccc(Cl)cc2)CCC1 | 1 | 1.3 |  | 35 | 3600 | 100 | 26 | > 4000 |  | 
9 | Cn1c(-c2ccc(-c3ccccn3)cc2Cl)nnc1C1(c2ccc(Cl)cc2)CCC1 | 1 | 1.4 |  | 98 | 2400 | 41 | -5 | > 4000 |  | 
10 | Cn1c(-c2ccc(OC3CC3)cc2)nnc1C1(c2ccc(Cl)cc2)CCC1 | 10 | 2.2 | > 4000 |  |  | 95 |  | > 4000 |  | 95
11 | Cc1cn(-c2ccc(-c3nnc(C4(c5ccc(Cl)cc5)CCC4)n3C)c(Cl)c2)c(C2CC2)n1 | 9.8 | 6 |  | 13 | 1300 | 60 | 7 | > 4000 |  | 
12 | CCSc1ccccc1-c1ccc(-c2nnc(C3(c4ccc(Cl)cc4)CCC3)n2C)c(Cl)c1 | 11 | 4.7 |  | 48 | 1700 | 51 | 1 | > 4000 | 54 | 
13 | Cn1c(-c2ccccc2OC(F)(F)F)nnc1C1(c2ccc(Cl)cc2)CCC1 | 2.3 | 4.1 | > 4000 |  |  | 44 |  | > 4000 |  | 59
14 | Cn1c(-c2ccc(O)cc2)nnc1C1(c2ccc(Cl)cc2)CCC1 | 0.34 | 19 | > 4000 |  |  | 10 |  | > 4000 |  | 17
15 | Cc1nccn1-c1ccc(-c2nnc(C3(c4ccc(Cl)cc4)CCC3)n2C)c(Cl)c1 | 2.6 | 9.6 |  | 22 | > 25000 |  |  | > 4000 |  | 
16 | CCS(=O)(=O)c1cccc(-c2ccc(-c3nnc(C4(c5ccc(Cl)cc5)CCC4)n3C)c(Cl)c2)c1 | 0.98 | 0.98 |  | -31 | 25000 | 93 | 29 | > 4000 | 59 | 
17 | Cn1c(-c2ccc(O)c(F)c2)nnc1C1(c2ccc(Cl)cc2)CCC1 | 2 | 61 | > 4000 |  |  | 6 |  | > 4000 |  | 3
18 | Cn1c(-c2ccc(-n3ccnc3)cc2Cl)nnc1C1(c2ccc(Cl)cc2)CCC1 | 1 | 2.8 |  | 21 | 12000 | 78 | 10 | > 4000 |  | 
19 | Cn1c(-c2ccc(-c3ccccc3)cc2Cl)nnc1C1(c2ccc(Cl)cc2)CCC1 | 1 | 1.4 |  |  | 1700 | 99 | 85 |  |  | 
20 | Cn1c(-c2cccc(-c3ccccc3)c2)nnc1C1(c2ccc(Cl)cc2)CCC1 | 4.3 | 56 | > 4000 |  |  | -2 |  | > 4000 |  | -2
